{"source": "paper PMC3668096", "about": "(FEBS letters, 2012)", "key": {"MshA": {"molecular_target": "T1, MshA (Mycolicibacterium smegmatis, UniProt A0QQZ8)", "T1 sequence (A0QQZ8 1-434)": "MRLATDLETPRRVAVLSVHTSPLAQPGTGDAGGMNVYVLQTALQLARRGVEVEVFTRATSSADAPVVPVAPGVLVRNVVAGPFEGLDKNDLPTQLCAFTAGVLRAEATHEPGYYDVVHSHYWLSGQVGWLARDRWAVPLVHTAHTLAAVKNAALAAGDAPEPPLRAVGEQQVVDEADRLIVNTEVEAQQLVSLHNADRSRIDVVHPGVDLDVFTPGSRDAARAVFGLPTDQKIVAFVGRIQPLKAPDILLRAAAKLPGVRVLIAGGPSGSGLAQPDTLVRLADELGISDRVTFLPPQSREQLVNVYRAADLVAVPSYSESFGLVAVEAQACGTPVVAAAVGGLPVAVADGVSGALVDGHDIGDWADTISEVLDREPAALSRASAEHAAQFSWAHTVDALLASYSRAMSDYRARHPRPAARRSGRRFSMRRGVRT", "assay": "MshA glycosyltransferase assay", "assay_type": "biochemical", "conditions": "1 mM UDP-GlcNAc, 1 mM 1-L-inositol-1-phosphate"}, "B. subtilis BshA": {"molecular_target": "B. subtilis BshA (Bacillus subtilis, UniProt P42982)", "sequence (P42982 whole entry)": "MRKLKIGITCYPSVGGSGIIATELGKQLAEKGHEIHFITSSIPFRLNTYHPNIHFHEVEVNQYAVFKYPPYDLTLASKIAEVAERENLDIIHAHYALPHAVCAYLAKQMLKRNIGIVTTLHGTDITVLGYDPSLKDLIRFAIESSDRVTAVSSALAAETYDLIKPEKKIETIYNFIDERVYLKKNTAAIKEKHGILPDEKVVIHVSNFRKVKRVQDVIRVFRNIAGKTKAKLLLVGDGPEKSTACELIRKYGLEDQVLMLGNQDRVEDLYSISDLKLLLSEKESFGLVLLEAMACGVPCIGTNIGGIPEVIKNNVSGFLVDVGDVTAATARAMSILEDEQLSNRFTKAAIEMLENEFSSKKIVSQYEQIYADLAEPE", "assay": "HPLC detection of UDP release at […] nm", "assay_type": "biochemical"}}, "data": [{"smiles": "CC(=O)N[C@@H](CS)C(=O)NC1[C@@H](O[C@@H]2[C@H](O)[C@H](O)[C@@H](O)[C@H](O)[C@H]2O)O[C@H](CO)[C@@H](O)[C@@H]1O", "note": "(stereo partly drawn) [MSH, mycothiol]", "values": [{"measurement": "IC50", "setting": "MshA; preincubated with MSH, feedback inhibition", "value": 3.6, "unit": "mM"}]}, {"smiles": "CC(=O)N[C@H]1[C@@H](OP(=O)(O)OP(=O)(O)OC[C@H](C=O)OC(C=O)n2ccc(=O)[nH]c2=O)O[C@H](CO)[C@@H](O)[C@@H]1O", "note": "(stereo partly drawn) [O-UDP-GlcNAc, 2’,3’-dialdehydo-UDP-N-acetylglucosamine]", "values": [{"measurement": "IC50", "setting": "MshA; preincubated with inhibitor", "value": 0.2, "unit": "mM"}]}, {"smiles": "N[C@@H](CS)C(=O)N[C@H]1[C@@H](O[C@@H](CC(=O)O)C(=O)O)O[C@H](CO)[C@@H](O)[C@@H]1O", "note": "[BSH, bacillithiol]", "values": [{"measurement": "IC50", "setting": "B. subtilis BshA", "value": 700, "unit": "µM"}]}]}
